Values joined by “and” are separate entries in the source; they are usually repeats but may differ in a detail not shown here. Equal values may be shown once. Inconclusive results and toxic doses are left out.
System: L1210 leukemia ip in BDF1 mice, survival T/C
Assay: NCI In Vivo Anticancer Drug Screen. Data for tumor model L1210 Leukemia (intraperitoneal) in B6D2F1 (BDF1) mice
Details: endpoint: mean survival time, higher = longer survival
How it was run: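 Read-out is survival time, reported as the treated-group measurement over the vehicle-control measurement.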

[1] = dose: 100.0 mg/kg/injection, schedule: Q01DX009 (ip), vehicle: Klucel (hydroxypropylcellulose) (HPC)
[2] = dose: 200.0 mg/kg/injection, schedule: Q01DX009 (ip), vehicle: Klucel (hydroxypropylcellulose) (HPC)
[3] = dose: 400.0 mg/kg/injection, schedule: Q01DX009 (ip), vehicle: Klucel (hydroxypropylcellulose) (HPC)
[4] = dose: 100.0 mg/kg/injection, schedule: Q01DX001 (ip), vehicle: saline
[5] = dose: 200.0 mg/kg/injection, schedule: Q01DX001 (ip), vehicle: saline
[6] = dose: 400.0 mg/kg/injection, schedule: Q01DX001 (ip), vehicle: saline

Question: How did the T/C (dose: 100.0 mg/kg/injection, schedule: Q01DX009 (ip), vehicle: saline with Tween-80) turn out when `O=C(O)C1Cc2c([nH]c3ccccc23)C(c2ccccc2)N1` (configuration not stated) was run?
Answer: 96 % of control

Question: And the T/C (dose: 100.0 mg/kg/injection, schedule: Q04DX003 (ip), vehicle: saline with Tween-80)?
Answer: 104 % of control

Question: And the T/C (dose: 200.0 mg/kg/injection, schedule: Q01DX009 (ip), vehicle: saline with Tween-80)?
Answer: 94 % of control

Question: And the T/C (dose: 200.0 mg/kg/injection, schedule: Q04DX003 (ip), vehicle: saline with Tween-80)?
Answer: 102 % of control

Question: What about the T/C (dose: 400.0 mg/kg/injection, schedule: Q01DX009 (ip), vehicle: saline with Tween-80) of the same compound?
Answer: 97 % of control

Question: What about the T/C (dose: 400.0 mg/kg/injection, schedule: Q04DX003 (ip), vehicle: saline with Tween-80) of the same compound?
Answer: 96 % of control

Question: How did the T/C (dose: 100.0 mg/kg/injection, schedule: Q01DX001 (ip), vehicle: carboxymethylcellulose (CMC)) turn out when `CCOC(=O)CCCN(c1ccccc1)S(=O)(=O)c1ccc(C)cc1` was run?
Answer: 93 % of control

Question: And the T/C (dose: 200.0 mg/kg/injection, schedule: Q01DX001 (ip), vehicle: carboxymethylcellulose (CMC))?
Answer: 96 % of control

Question: What about the T/C (dose: 400.0 mg/kg/injection, schedule: Q01DX001 (ip), vehicle: carboxymethylcellulose (CMC)) of the same compound?
Answer: 107 % of control

Question: Which T/C [1] does the source give for `COC(=O)c1ccc(C(=O)O)cc1[N+](=O)[O-]` here?
Answer: 102 % of control

Question: And the T/C [2]?
Answer: 102 % of control

Question: And the T/C [3]?
Answer: 90 % of control

Question: Which T/C [4] does the source give for `O=[N+]([O-])c1ccc(S(=O)(=O)Cl)c(Cl)c1` here?
Answer: 100 % of control

Question: What about the T/C [5] of the same compound?
Answer: 96 % of control

Question: And the T/C [6]?
Answer: 92 % of control

Question: For `CCCC(C(=O)O)N(C)Cc1ccccc1` (configuration not stated), which T/C (dose: 100.0 mg/kg/injection, schedule: Q01DX009 (ip), vehicle: acetone) is on record?
Answer: 92 % of control

Question: What about the T/C (dose: 200.0 mg/kg/injection, schedule: Q01DX009 (ip), vehicle: acetone) of the same compound?
Answer: 101 % of control

Question: And the T/C (dose: 400.0 mg/kg/injection, schedule: Q01DX009 (ip), vehicle: acetone)?
Answer: 97 % of control

Question: How did the T/C [1] turn out when `Cc1ccc(N=C(c2ccccc2)c2ccc([N+](=O)[O-])cc2)cc1` was run?
Answer: 98 % of control

Question: What about the T/C (dose: 100.0 mg/kg/injection, schedule: Q04DX003 (ip), vehicle: Klucel (hydroxypropylcellulose) (HPC)) of the same compound?
Answer: 105 % of control

Question: What about the T/C [2] of the same compound?
Answer: 101 % of control

Question: And the T/C (dose: 200.0 mg/kg/injection, schedule: Q04DX003 (ip), vehicle: Klucel (hydroxypropylcellulose) (HPC))?
Answer: 93 % of control

Question: And the T/C [3]?
Answer: 103 % of control

Question: What about the T/C (dose: 400.0 mg/kg/injection, schedule: Q04DX003 (ip), vehicle: Klucel (hydroxypropylcellulose) (HPC)) of the same compound?
Answer: 102 % of control

Question: What does the source list for `NS(=O)(=O)c1cc(Br)c(N=Nc2ccc(O)c3ncccc23)c(Br)c1`?
Answer: T/C [4]: 100 % of control; T/C [5]: 100 % of control; T/C [6]: 108 % of control

Question: For `C=NC1CCCCC1`, which T/C (dose: 100.0 mg/kg/injection, schedule: Q04DX002 (ip), vehicle: gum acacia) is on record?
Answer: 105 % of control

Question: And the T/C (dose: 200.0 mg/kg/injection, schedule: Q04DX002 (ip), vehicle: gum acacia)?
Answer: 105 % of control

Question: And the T/C (dose: 400.0 mg/kg/injection, schedule: Q04DX002 (ip), vehicle: gum acacia)?
Answer: 92 % of control

Question: For `COC1CCC(NC(=O)N(CCCl)N=O)CC1` (configuration not stated), which T/C (dose: 3.5 mg/kg/injection, schedule: Q01DX001 (ip), vehicle: saline with Tween-80) is on record?
Answer: 106 % of control

Question: And the T/C (dose: 5.0 mg/kg/injection, schedule: Q01DX001 (ip), vehicle: saline with Tween-80)?
Answer: 110 % of control

Question: What about the T/C (dose: 8.0 mg/kg/injection, schedule: Q01DX001 (ip), vehicle: saline with Tween-80) of the same compound?
Answer: 124 % of control

Question: And the T/C (dose: 16.0 mg/kg/injection, schedule: Q01DX001 (ip), vehicle: saline with Tween-80)?
Answer: 155 % of control and 266 % of control

Question: What about the T/C (dose: 18.0 mg/kg/injection, schedule: Q01DX001 (ip), vehicle: saline with Tween-80) of the same compound?
Answer: 221 % of control

Question: And the T/C (dose: 24.0 mg/kg/injection, schedule: Q01DX001 (ip), vehicle: saline with Tween-80)?
Answer: 592 % of control

Question: And the T/C (dose: 26.0 mg/kg/injection, schedule: Q01DX001 (ip), vehicle: saline with Tween-80)?
Answer: 302 % of control

Question: And the T/C (dose: 35.0 mg/kg/injection, schedule: Q01DX001 (ip), vehicle: saline with Tween-80)?
Answer: 404 % of control

Question: And the T/C (dose: 40.0 mg/kg/injection, schedule: Q01DX001 (ip), vehicle: saline with Tween-80)?
Answer: 340 % of control

Question: What about the T/C (dose: 53.0 mg/kg/injection, schedule: Q01DX001 (ip), vehicle: saline with Tween-80) of the same compound?
Answer: 193 % of control

Question: What about the T/C (dose: 60.0 mg/kg/injection, schedule: Q01DX001 (ip), vehicle: saline with Tween-80) of the same compound?
Answer: 294 % of control

Question: For `CC(=O)CCCOc1ccc([N+](=O)[O-])cc1`, which T/C [4] is on record?
Answer: 98 % of control

Question: What about the T/C [5] of the same compound?
Answer: 98 % of control

Question: What about the T/C [6] of the same compound?
Answer: 101 % of control

Question: For `OC(c1ccc(Cl)cc1)c1nc2ccccc2[nH]1` (configuration not stated), which T/C (dose: 100.0 mg/kg/injection, schedule: Q04DX002 (ip), vehicle: Klucel (hydroxypropylcellulose) (HPC)) is on record?
Answer: 100 % of control

Question: And the T/C (dose: 200.0 mg/kg/injection, schedule: Q04DX002 (ip), vehicle: Klucel (hydroxypropylcellulose) (HPC))?
Answer: 100 % of control

Question: What about the T/C (dose: 400.0 mg/kg/injection, schedule: Q04DX002 (ip), vehicle: Klucel (hydroxypropylcellulose) (HPC)) of the same compound?
Answer: 103 % of control

Source: PubChem BioAssay AID248 (DTP/NCI, 2004)
